In brackets after ≈: the same amount, converted by molar mass.
Key:
[1] = tested on: Trichophyton mentagrophytes; assay: Antimycotic activity in vitro (series dilution test), Trichophyton mentagrophytes; format: cell-based; settings: nutrient medium, 28° C, 24 to 96 hours, read-out: Minimum inhibitory concentration (MIC), Trichophyton mentagrophytes
[2] = tested on: Candida albicans; assay: Antimycotic activity in vitro (series dilution test), Candida albicans; format: cell-based; settings: nutrient medium, 28° C, 24 to 96 hours, read-out: Minimum inhibitory concentration (MIC), Candida albicans
[3] = tested on: Penicillium commune; assay: Antimycotic activity in vitro (series dilution test), Penicillium commune; format: cell-based; settings: nutrient medium, 28° C, 24 to 96 hours, read-out: Minimum inhibitory concentration (MIC), Penicillium commune
[4] = tested on: Aspergillus niger; assay: Antimycotic activity in vitro (series dilution test), Aspergillus niger; format: cell-based; settings: nutrient medium, 28° C, 24 to 96 hours, read-out: Minimum inhibitory concentration (MIC), Aspergillus niger
[5] = tested on: Trichophyton mentagrophytes; assay: Topical application against trichophytosis in guinea pigs; format: in vivo; settings: 1% strength solution applied locally for 11 to 14 days
From the text: a. Topical application against trichophytosis in guinea pigs.
A 1% strength solution of the active compounds in a dimethylsulphoxide/glycerol/water mixture (1:3:6) or in polyethylene glycol 400 was applied locally for 11 to 14 days after the trichophytosis (pathogen: Trichophyton mentagrophytes) had been produced experimentally.

[6] = tested on: Trichophyton quinckeanum; assay: Oral administration against Quinckeanum trichophytosis in white mice; format: in vivo; settings: 100 mg/kg orally twice daily up to the eighth day of the infection
Protocol: b. Oral administration against Quinckeanum trichophytosis in white mice By using doses of 100 mg/kg of body weight, administered orally twice daily up to the eighth day of the infection, it was possible to suppress the development of the Quinckeanum infection in mice.

| Structure (SMILES) | MIC [1] [mg/L] | MIC [2] [mg/L] | MIC [3] [mg/L] | MIC [4] [mg/L] | Action (topical, trichophytosis in guinea pigs) [5] | Action against Trichophyton quinckeanum [6] |
| --- | --- | --- | --- | --- | --- | --- |
| CC(C)(C)C(O)C(Cn1ccnc1)Oc1ccc(Cl)cc1 (stereo not shown) [Example 1, 1-(imidazol-1-yl)-2-(4-chlorophenoxy)-3-hydroxy-4,4-dimethyl-pentane] | 32 (≈ 104 µM) | 64 (≈ 207 µM) | > 64 |  |  |  |
| CC(C)(C)C(O)(Cc1ccccc1)C(Cn1ccnc1)Oc1ccc(Cl)cc1 (stereo not shown) [Example 2, 1-(imidazol-1-yl)-2-(4-chlorophenoxy)-3-benzyl-3-hydroxy-4,4-dimethyl-pentane] | < 1 | 64 (≈ 160 µM) | > 64 | > 64 |  |  |
| CC(C)(C)C(O)C(Cn1ccnc1)Oc1ccccc1Cl (stereo not shown) [Example 3] | 32 (≈ 104 µM) | 64 (≈ 207 µM) | > 64 |  |  |  |
| CC(C)(C)C(O)C(Cn1ccnc1)Oc1cccc(Cl)c1 (stereo not shown) [Example 4] | > 64 | 64 (≈ 207 µM) | > 64 |  |  |  |
| CC(C)(C)C(O)C(Cn1ccnc1)Oc1ccc(F)cc1 (stereo not shown) [Example 6] | 64 (≈ 219 µM) | 64 (≈ 219 µM) | > 64 |  |  |  |
| CC(C)(C)C(C)(O)C(Cn1ccnc1)Oc1ccc(Cl)cc1 (stereo not shown) [Example 9] | 8 (≈ 24.8 µM) | 64 (≈ 198 µM) | > 64 |  | xx (healing of the infection inside 4-6 days after infection.) | xx (fewer than 30% of the animals showed symptoms of the infection.) |

Further compounds by falling MIC [1], results first:

| MIC [1] [mg/L] | MIC [2] [mg/L] | MIC [3] [mg/L] | MIC [4] [mg/L] | Structure (SMILES) | Action (topical, trichophytosis in guinea pigs) [5] | Action against Trichophyton quinckeanum [6] |
| --- | --- | --- | --- | --- | --- | --- |
| 32 (≈ 117 µM) | 64 (≈ 233 µM) | > 64 |  | CC(C)(C)C(O)C(Cn1ccnc1)Oc1ccccc1 (stereo not shown) [Example 8] |  |  |
| 4 (≈ 11.7 µM) | 64 (≈ 186 µM) | > 64 | 64 (≈ 186 µM) | CC(C)(C)C(O)C(Cn1ccnc1)Oc1ccc(Cl)cc1Cl (stereo not shown) [Example 5] |  |  |
| 4 (≈ 12.4 µM) | 64 (≈ 198 µM) | > 64 | > 64 | Cc1cc(Cl)ccc1OC(Cn1ccnc1)C(O)C(C)(C)C (stereo not shown) [Example 7] | xx (healing of the infection inside 4-6 days after infection.) | xx (fewer than 30% of the animals showed symptoms of the infection.) |

From US3987180A, “1-Propyl-imidazolyl antimycotic compositions and methods of treating mycoses” (Bayer Aktiengesellschaft, priority 1973, dated 1976)
